AC50 data for 65 molecules are collected here from PubChem BioAssay AID1224921 (Broad Institute, 2016).

Calls of active or inactive are those of the source. The rule behind the calls is not given here. A value given as a limit tells only on which side of the number the result lay.

The assay has as its system Clostridioides difficile clinical isolate growth, OD600, 24 h. The experiment in a line: C. difficile growth inhibition, confirmation, 4-point retest (AID 1224921).
On to `O=C(C[C@H]1CC[C@@H]2[C@H](COC[C@@H](O)CN2S(=O)(=O)c2ccccc2)O1)NCC1CCCCC1`, for which the AC50 was 15.5 µM.

Consider `COc1ccccc1CNC(=O)C[C@H]1CC[C@H]2[C@@H](COC[C@@H](O)CN2C(=O)Nc2ccc(C(F)(F)F)cc2)O1`, for which the AC50 is 2.4 µM.

For `CO[C@H](CN(C)C(=O)C1CCOCC1)[C@@H](C)CN(C(=O)Nc1ccc(C(F)(F)F)cc1)[C@H](C)CO`, the concentration at half-maximal activity (AC50) is 0.831 µM.

For the molecule `CCCNC(=O)C[C@H]1CC[C@H]2[C@@H](COC[C@@H](O)CN2C(=O)Nc2ccc(Cl)c(Cl)c2)O1`, the AC50 was 2.78 µM.

Consider `N#C[C@H]1[C@@H](c2ccc(C#CC3CCCC3)cc2)[C@H](CO)N1C(=O)Nc1ccc(F)cc1`, for which the AC50 was > 60 µM (inactive).

Regarding `CO[C@@H](CN(C)Cc1cc(F)ccc1F)[C@H](C)CN(C(=O)Nc1ccc(C(F)(F)F)cc1)[C@@H](C)CO`, the AC50 is 3.71 µM.

Turning to `O=C(C[C@@H]1CC[C@H]2[C@@H](COC[C@H](O)CN2S(=O)(=O)c2ccc(Cl)cc2)O1)NCc1ccc(Cl)c(Cl)c1`, the AC50 is 30.9 µM.

Turning to `C[C@@H]1CCCCO[C@@H](CN(C)C(=O)CCCN(C)C)[C@H](C)CN([C@H](C)CO)C(=O)c2cc(NC(=O)Nc3ccc(C(F)(F)F)cc3)ccc2O1`, the AC50 is 7.16 µM.

As for `O=C(NCC[C@H]1CC[C@@H](NC(=O)c2cccnc2)[C@H](CO)O1)Nc1ccc(C(F)(F)F)cc1`, the AC50 is 2.42 µM.

For `CO[C@@H]1CN(C)C(=O)c2ccc(NC(=O)C3CCOCC3)cc2OC[C@@H](C)N(C(=O)Nc2ccc(C(F)(F)F)cc2)C[C@H]1C`, the concentration at half-maximal activity (AC50) was 16.1 µM.

As to `CNC(=O)C[C@H]1CC[C@H]2[C@@H](COC[C@@H](O)CN2C(=O)Nc2ccc(Cl)c(Cl)c2)O1`, the AC50 is 2.75 µM.

Consider `O=C(C[C@H]1CC[C@@H]2[C@H](COC[C@H](O)CN2C(=O)Nc2ccc(C(F)(F)F)cc2)O1)NC1Cc2ccccc2C1`, for which the AC50 is 6.36 µM.

In the case of `CCC(=O)N[C@H]1CC[C@@H](CCNC(=O)Nc2ccc(C(F)(F)F)cc2)O[C@H]1CO`, the AC50 is 2.41 µM.

As to `C[C@H](NC(=O)C[C@H]1CC[C@@H]2[C@H](COC[C@H](O)CN2C(=O)Nc2cc(Cl)cc(Cl)c2)O1)c1ccccc1`, the AC50 is 11.5 µM.

Turning to `CNC(=O)C[C@H]1CC[C@H]2[C@@H](COC[C@H](O)CN2C(=O)Nc2ccc(Cl)c(Cl)c2)O1`, the AC50 is below 1.95 µM.

As to `C[C@@H]1CCCCO[C@@H](CN(C)CC2CCCCC2)[C@@H](C)CN([C@@H](C)CO)C(=O)c2cc(NC(=O)Nc3ccc(C(F)(F)F)cc3)ccc2O1`, the concentration at half-maximal activity (AC50) is 10.7 µM.

For the molecule `O=C(NCC[C@H]1CC[C@H](NC(=O)c2cccnc2)[C@@H](CO)O1)Nc1ccc(C(F)(F)F)cc1`, the AC50 is 1.79 µM.

For `C[C@@H]1CN([C@@H](C)CO)C(=O)Cc2cc(N(C)C)ccc2O[C@H]1CN(C)Cc1ccc(C(F)(F)F)cc1`, the AC50 was 29.1 µM.

For the molecule `COc1ccccc1C#Cc1ccc([C@H]2[C@@H](CO)N(C(=O)C3CCCCC3)[C@H]2C#N)cc1`, the AC50 is 34.2 µM.

Take `COc1ccccc1CNC(=O)C[C@@H]1CC[C@@H]2[C@H](COC[C@@H](O)CN2C(=O)Nc2ccc(C(F)(F)F)cc2)O1`: the half-maximal activity concentration (AC50) is 1.6 µM.

Turning to `CO[C@@H](CN(C)S(=O)(=O)c1cn(C)cn1)[C@@H](C)CN(C(=O)Nc1ccc(C(F)(F)F)cc1)[C@H](C)CO`, the AC50 is 16.5 µM.

Regarding `CCCC(=O)Nc1ccc2c(c1)C(=O)N(C)[C@@H]1CC[C@@H](CC(=O)OC)O[C@@H]1CO2`, the AC50 is > 60 µM (inactive).

On to `CO[C@@H]1CN(C)C(=O)c2cc(NC(=O)c3cc(C)on3)ccc2OC[C@H](C)N(C(C)=O)C[C@@H]1C`, for which the AC50 was > 60 µM (inactive).

`C[C@@H]1CN([C@@H](C)CO)C(=O)c2cccc(NC(=O)Nc3ccc(F)cc3)c2O[C@@H]1CN(C)Cc1ccc(-c2ccccc2)cc1`: the AC50 was below 0.5 µM.

As for `O=C(C[C@@H]1CC[C@@H]2[C@H](COC[C@@H](O)CN2C(=O)Nc2ccc(C(F)(F)F)cc2)O1)NCC1CCCCC1`, the AC50 is 2.03 µM.

`CCCNC(=O)C[C@@H]1CC[C@H]2[C@@H](COC[C@H](O)CN2C(=O)Nc2ccc(Cl)c(Cl)c2)O1`: the AC50 is 5.98 µM.

As to `C[C@@H]1CCCCO[C@H](CN(C)Cc2ccc3c(c2)OCO3)[C@@H](C)CN([C@@H](C)CO)C(=O)c2cc(NC(=O)Nc3ccc(C(F)(F)F)cc3)ccc2O1`, the half-maximal activity concentration (AC50) is 20.9 µM.

As to `Cn1cnc(CCNC(=O)C[C@@H]2CC[C@@H]3[C@H](COC[C@H](O)CN3C(=O)Nc3ccc(C(F)(F)F)cc3)O2)c1`, the AC50 was 19.6 µM.

Regarding `C[C@@H]1CN([C@H](C)CO)C(=O)c2cc(NC(=O)Nc3ccc(C(F)(F)F)cc3)ccc2O[C@@H](C)CCCCO[C@@H]1CN(C)CC1CCCCC1`, the AC50 is 14.6 µM.

Consider `CO[C@@H](CN(C)Cc1cc(F)ccc1F)[C@H](C)CN(C(=O)Nc1ccc(C(F)(F)F)cc1)[C@H](C)CO`, for which the AC50 is 5.25 µM.

For the molecule `COc1ccc(CN(C)C[C@H]2OCCCC[C@@H](C)Oc3ccc(NC(=O)Nc4cccc5ccccc45)cc3C(=O)N([C@@H](C)CO)C[C@@H]2C)cc1`, the AC50 was 27.4 µM.

As to `CO[C@H](CN(C)Cc1cc(F)ccc1F)[C@H](C)CN(C(=O)Nc1ccc(C(F)(F)F)cc1)[C@@H](C)CO`, the AC50 was 7.48 µM.

For the molecule `C[C@H](CO)N1C[C@H](C)[C@@H](CN(C)C(=O)Nc2ccc(C(F)(F)F)cc2)Oc2ccc(NC(=O)C3CC3)cc2C1=O`, the AC50 is 15.5 µM.

In the case of `O=C(N[C@H]1CC[C@H](CCNS(=O)(=O)c2ccc(Cl)cc2)O[C@H]1CO)c1ccccn1`, the AC50 was > 60 µM (inactive).

As to `O=C(C[C@@H]1CC[C@@H]2[C@H](COC[C@@H](O)CN2S(=O)(=O)c2ccccc2)O1)NCC1CCCCC1`, the half-maximal activity concentration (AC50) was 15.2 µM.

With `C[C@@H]1CN([C@@H](C)CO)C(=O)c2cccc(NC(=O)Nc3ccc4c(c3)OCO4)c2O[C@@H]1CN(C)Cc1ccc(-c2ccccc2)cc1`, the AC50 is 0.665 µM.

On to `CNC[C@@H]1OCCCC[C@H](C)Oc2ccc(NC(=O)Nc3ccc(C(F)(F)F)cc3)cc2C(=O)N([C@H](C)CO)C[C@@H]1C`, for which the concentration at half-maximal activity (AC50) was 19.2 µM.

Regarding `C[C@@H]1CCCCO[C@@H](CN(C)CC2CCCCC2)[C@H](C)CN([C@H](C)CO)C(=O)c2cc(NC(=O)Nc3ccc(C(F)(F)F)cc3)ccc2O1`, the AC50 was 16.2 µM.

Regarding `C[C@H](CO)N1C[C@H](C)[C@H](CN(C)C(=O)Nc2ccc(F)cc2)Oc2c(NC(=O)Nc3ccc(C(F)(F)F)cc3)cccc2C1=O`, the AC50 is 33.7 µM.

As for `O=C(C[C@@H]1C[C@H]2c3cc(NC(=O)NC4CCCC4)ccc3O[C@H]2[C@H](CO)O1)NCc1ccc2c(c1)OCO2`, the AC50 is > 60 µM (inactive).

For `CC(C)NC(=O)N1[C@H](CO)[C@@H](c2ccc(-c3ccc(F)cc3)cc2)[C@@H]1C#N`, the concentration at half-maximal activity (AC50) is 22.6 µM.

With `Cc1ccc(S(=O)(=O)Nc2ccc3c(c2)C(=O)N([C@@H](C)CO)C[C@H](C)[C@@H](CN(C)Cc2ccc4c(c2)OCO4)OCCCC[C@@H](C)O3)cc1`, the AC50 was 7.88 µM.

With `CO[C@H](CN(C)Cc1cc(F)ccc1F)[C@H](C)CN(C(=O)Nc1ccc(C(F)(F)F)cc1)[C@H](C)CO`, the AC50 was 10.3 µM.

Regarding `CO[C@@H](CN(C)Cc1cc(F)ccc1F)[C@@H](C)CN(C(=O)Nc1ccc(C(F)(F)F)cc1)[C@@H](C)CO`, the AC50 is 13.1 µM.

As to `CCCNC(=O)Nc1ccc2c(c1)C(=O)N(C)C[C@@H](OC)[C@@H](C)CN(C)[C@H](C)CO2`, the AC50 is > 60 µM (inactive).

Turning to `O=C(C[C@H]1CC[C@H]2[C@@H](COC[C@H](O)CN2C(=O)Nc2ccc(C(F)(F)F)cc2)O1)NCC1CCCCC1`, the AC50 is 2.45 µM.

As for `O=C(C[C@@H]1CC[C@H]2[C@@H](COC[C@H](O)CN2S(=O)(=O)c2ccccc2)O1)NCC1CCCCC1`, the AC50 is 15.6 µM.

Regarding `C[C@@H]1CN([C@@H](C)CO)C(=O)c2cc(NS(=O)(=O)c3cn(C)cn3)ccc2O[C@@H](C)CCCCO[C@@H]1CN(C)C(=O)Nc1ccc(C(F)(F)F)cc1`, the AC50 is 5.78 µM.

Consider `COc1ccc(CN(C)C[C@@H]2OCCCC[C@H](C)Oc3ccc(NC(=O)Nc4ccc(C(F)(F)F)cc4)cc3C(=O)N([C@H](C)CO)C[C@@H]2C)cc1`, for which the AC50 is > 60 µM (inactive).

Turning to `C[C@H](CO)N1C[C@H](C)[C@@H](CN(C)Cc2ccc(-c3ccccc3)cc2)Oc2c(NC(=O)c3ccncc3)cccc2C1=O`, the concentration at half-maximal activity (AC50) is 6.59 µM.

With `CO[C@@H]1CN(C)C(=O)c2ccc(NC(=O)c3ccccc3)cc2OC[C@H](C)N(C(=O)C2CC2)C[C@H]1C`, the AC50 was > 60 µM (inactive).

With `O=C(C[C@@H]1CC[C@H]2[C@@H](COC[C@@H](O)CN2C(=O)Nc2ccc(C(F)(F)F)cc2)O1)NCC1CC1`, the half-maximal activity concentration (AC50) was 3.98 µM.

As to `O=C(C[C@@H]1CC[C@@H]2[C@H](COC[C@H](O)CN2C(=O)Nc2ccc(Cl)c(Cl)c2)O1)NCc1ccc(Cl)cc1`, the AC50 is 0.915 µM.

`COc1cccc(C#Cc2ccc([C@@H]3[C@@H](C#N)N(C(=O)C4CCC4)[C@H]3CO)cc2)c1`: the AC50 is > 60 µM (inactive).

Consider `O=C(C[C@@H]1CC[C@H]2[C@@H](COC[C@@H](O)CN2C(=O)Nc2cc(Cl)cc(Cl)c2)O1)N1CCOCC1`, for which the concentration at half-maximal activity (AC50) was 10.7 µM.

With `C[C@@H]1CN([C@H](C)CO)S(=O)(=O)c2ccc(/C=C/c3ccccc3)cc2O[C@H]1CN(C)Cc1ccc(C(=O)O)cc1`, the AC50 is below 0.5 µM.

`CC(=O)N[C@@H]1CC[C@@H](CCNC(=O)Nc2ccc(C(F)(F)F)cc2)O[C@@H]1CO`: the half-maximal activity concentration (AC50) is 8.39 µM.

With `O=C(C[C@H]1CC[C@H]2[C@@H](COC[C@@H](O)CN2C(=O)Nc2ccc(Cl)c(Cl)c2)O1)NCc1ccccc1`, the concentration at half-maximal activity (AC50) was 3.72 µM.

Take `O=C(NCC[C@@H]1CC[C@H](NC(=O)c2cccnc2)[C@H](CO)O1)Nc1ccc(C(F)(F)F)cc1`: the half-maximal activity concentration (AC50) is 3.01 µM.

For `CN(C)CC(=O)N[C@H]1CC[C@H](CCNC(=O)Nc2ccc(C(F)(F)F)cc2)O[C@H]1CO`, the AC50 was 10.9 µM.

Take `COc1ccccc1S(=O)(=O)N(C)C[C@@H]1OCc2ccccc2-c2c(n(C)c3ccccc23)C(=O)N([C@H](C)CO)C[C@@H]1C`: the AC50 is > 60 µM (inactive).

Turning to `C[C@@H]1CN([C@H](C)CO)C(=O)c2cc(C#Cc3ccccc3F)cnc2O[C@H]1CN(C)C`, the AC50 is 23.3 µM.

Regarding `CN(C)CC(=O)N1[C@H](C#N)[C@H](c2ccc(C#CC3CCCCC3)cc2)[C@H]1CO`, the AC50 was 14.2 µM.

As for `C[C@H](NC(=O)C[C@@H]1CC[C@@H]2[C@H](COC[C@H](O)CN2C(=O)Nc2cccc(Cl)c2)O1)c1ccccc1`, the half-maximal activity concentration (AC50) was 14.4 µM.

Take `O=C(C[C@H]1CC[C@@H]2[C@H](COC[C@H](O)CN2C(=O)Nc2ccc(Cl)c(Cl)c2)O1)NCc1ccc(Cl)cc1`: the concentration at half-maximal activity (AC50) was 1.88 µM.

Broadly, the AC50 is the concentration at which the activity in the assay is half-maximal.
